From patent publication US8119650B2, “Aminophenyl derivatives as novel inhibitors of histone deacetylase” (Janssen Pharmaceutica N.V., priority 2006, dated 2012)
In brackets after ≈: the same amount, converted by molar mass. Like-named read-outs stand apart in the source and are kept apart here.

Columns and labels:
[1] = target: histone deacetylase (HeLa nuclear extracts); test: In vitro assay for inhibition of histone deacetylase with fluorescent-labelled substrate; type: biochemical; conditions: Fluor de Lys substrate
From the text: The in vitro assay for inhibition of histone deacetylase (see example C. 1) measures the inhibition of HDAC enzymatic activity obtained with the compounds of formula (I).
The HDAC Fluorescent Activity Assay/Drug Discovery Kit of Biomol (cat.No: AK-500-0001) was used. The HDAC Fluorescent Activity Assay is based on the Fluor de Lys (Fluorogenic Histone deAcetylase Lysyl) substrate and developer combination. The Fluor de Lys substrate, comprises an acetylated lysine side chain. Deacetylation of the substrate sensitizes the substrate so that, in the second step, treatment with the Fluor de Lys developer produces a fluorophore.
HeLa nuclear extracts (supplier: Biomol) were incubated at 60 μg/ml with 75 μM of substrate. The Fluor de Lys substrate was added in a buffer containing 25 mM Tris, 137 mM NaCl, 2.7 mM KCl and 1 mM MgCl2.6H2O at pH 7.4. After 30 min, 1 volume of the developer was added. The fluorophore was excited with 355 nm light and the emitted light (450 nm) was be detected on a fluorometric plate reader.
For each experiment, controls (containing HeLa nuclear extract and buffer), a blank incubation (containing buffer but no HeLa nuclear extract) and samples (containing compound dissolved in DMSO and further diluted in buffer and HeLa nuclear extract) were run in parallel. In first instance, compounds were tested at a concentration of 10^−5M. […] All sample were tested 4 times. In each test the blank value was substracted from both the control and the sample values. The control sample represented 100% of substrate deactylation. For each sample the fluorescence was expressed as a percentage of the mean value of the controls. […] Herein the effects of test compounds are expressed as pIC50 (the negative log value of the IC50-value) (see Table F-2).

[2] = Solubility at pH 2.3 (chemiluminescent nitrogen detector); type: physicochemical; conditions: pH 2.3, aqueous buffer; read-out: Solubility C.3.b. pH = 2.3
Description: The solubility of a compound measures the ability of a compound to stay in solution. In a first method the ability of a compound to stay in aqueous solution upon dilution (see example C.3.a) is measured. DMSO-stock solutions are diluted with a single aqueous buffer solvent in different consecutive steps. In this method, mixtures are then scanned in the BD Gentest Solubility Scanner for the occurrence of precipitation. In a second method the solubility of a compound at different pH's can be measured with the use of a Chemiluminescent Nitrogen Detector (see example C.3.b).
The solubility of a compound, at pH 2.3, can also be measured with the use of a chemiluminescent nitrogen detector (see Table F-2).

[3] = test system: A2780 ovarian carcinoma cells; test: Antiproliferative activity on A2780 cells (MTT); type: cell-based; conditions: Homo sapiens, 96 h, four days of incubation, read-out: Cellular activity pIC50 C.2 (converted)
Description: Cellular activity of the compounds of formula (I) was determined on A2780 tumour cells using a […] assay for cell toxicity or survival (Mosmann Tim, Journal of Immunological Methods 65: 55-63, 1983)(see example C.2).
All compounds tested were dissolved in DMSO and further dilutions were made in culture medium. Final DMSO concentrations never exceeded 0.1% (v/v) in cell proliferation assays. Controls contained A2780 cells and DMSO without compound and blanks contained DMSO but no cells. MTT was dissolved at 5 mg/ml in PBS. A glycine buffer comprised of 0.1 M glycine and 0.1 M NaCl buffered to pH 10.5 with NaOH (1 N) was prepared (all reagents were from Merck).
The human A2780 ovarian carcinoma cells (a kind gift from Dr. T. C. Hamilton [Fox Chase Cancer Centre, Pennsylvania, USA]) were cultured in RPMI 1640 medium supplemented with 2 mM L-glutamine, 50 μg/ml gentamicin and 10% fetal calf serum. Cells were routinely kept as monolayer cultures at 37° C. in a humidified 5% CO2 atmosphere. Cells were passaged once a week using a trypsin/EDTA solution at a split ratio of 1:40. All media and supplements were obtained from Life Technologies. Cells were free of mycoplasma contamination as determined using the Gen-Probe Mycoplasma Tissue Culture kit (supplier: BioMérieux).
Cells were seeded in NUNC™ 96-well culture plates (Supplier: Life Technologies) and allowed to adhere to the plastic overnight. Densities used for plating were 1500 cells per well in a total volume of 200 μl medium. After cell adhesion to the plates, medium was changed and drugs and/or solvents were added to a final volume of 200 μL Following four days of incubation, medium was replaced by 200 μl fresh medium and cell density and viability was assessed using an MTT-based assay. […] For each sample, the mean value for cell growth (in absorbance units) was expressed as a percentage of the mean value for cell growth of the control. […] Herein the effects of test compounds are expressed as pIC50 (the negative log value of the IC50-value) (see Table F-2).

## COc1cc(N)c(Cl)cc1C(=O)NC1CCN(CCCOc2ccc(F)cc2)CC1OC (centres unmarked) [Cisapride]
human, 15 min, 5 μM
  % metabolism: 45%

## Cn1cc(CNCC2CCN(c3ncc(C(=O)Nc4ccccc4N)cn3)CC2)c2ccccc21 [Compound 2]
[1]
  Enzymatic activity pIC50 C.1: 4.8
[2]
  solubility: 3700 µg/mL (≈ 7.88 mM)
[3]
  IC50: 100 nM

## CCCn1cc(CCNCC2CCN(c3ncc(C(=O)Nc4ccccc4N)cn3)CC2)c2cc(Cl)ccc21 [Compound 1]
[1]
  Enzymatic activity pIC50 C.1: <6
[3]
  IC50: 3160 nM

## Nc1ccccc1NC(=O)c1cnc(N2CCC(CNCCc3c[nH]c4ccccc34)CC2)nc1 [Compound 4]
[1]
  Enzymatic activity pIC50 C.1: <6

## CCCn1cc(CNCC2CCN(c3ncc(C(=O)Nc4ccccc4N)cn3)CC2)c2cc(F)ccc21 [Compound 3]
[1]
  Enzymatic activity pIC50 C.1: <6
[3]
  IC50: 1580 nM

## CS(=O)(=O)N(CCc1c[nH]c2ccccc12)CC1CCN(c2ncc(C(=O)Nc3ccccc3N)cn2)CC1 [Compound 5]
[1]
  Enzymatic activity pIC50 C.1: <6

## CCCO [propanol]
15 min incubation with microsomes, compound 5 μM
  % metabolism: 25%
